In ChEMBL document CHEMBL1129684, “New steroidal diazo ketones as potential photoaffinity labeling reagents for the mineralocorticoid receptor: synthesis and biological activities” (J Med Chem, 1996):

What was measured:
[1] = target: T1, Mineralocorticoid receptor (Homo sapiens) (UniProt P08235); conditions: CV-1
T1 sequence (whole entry): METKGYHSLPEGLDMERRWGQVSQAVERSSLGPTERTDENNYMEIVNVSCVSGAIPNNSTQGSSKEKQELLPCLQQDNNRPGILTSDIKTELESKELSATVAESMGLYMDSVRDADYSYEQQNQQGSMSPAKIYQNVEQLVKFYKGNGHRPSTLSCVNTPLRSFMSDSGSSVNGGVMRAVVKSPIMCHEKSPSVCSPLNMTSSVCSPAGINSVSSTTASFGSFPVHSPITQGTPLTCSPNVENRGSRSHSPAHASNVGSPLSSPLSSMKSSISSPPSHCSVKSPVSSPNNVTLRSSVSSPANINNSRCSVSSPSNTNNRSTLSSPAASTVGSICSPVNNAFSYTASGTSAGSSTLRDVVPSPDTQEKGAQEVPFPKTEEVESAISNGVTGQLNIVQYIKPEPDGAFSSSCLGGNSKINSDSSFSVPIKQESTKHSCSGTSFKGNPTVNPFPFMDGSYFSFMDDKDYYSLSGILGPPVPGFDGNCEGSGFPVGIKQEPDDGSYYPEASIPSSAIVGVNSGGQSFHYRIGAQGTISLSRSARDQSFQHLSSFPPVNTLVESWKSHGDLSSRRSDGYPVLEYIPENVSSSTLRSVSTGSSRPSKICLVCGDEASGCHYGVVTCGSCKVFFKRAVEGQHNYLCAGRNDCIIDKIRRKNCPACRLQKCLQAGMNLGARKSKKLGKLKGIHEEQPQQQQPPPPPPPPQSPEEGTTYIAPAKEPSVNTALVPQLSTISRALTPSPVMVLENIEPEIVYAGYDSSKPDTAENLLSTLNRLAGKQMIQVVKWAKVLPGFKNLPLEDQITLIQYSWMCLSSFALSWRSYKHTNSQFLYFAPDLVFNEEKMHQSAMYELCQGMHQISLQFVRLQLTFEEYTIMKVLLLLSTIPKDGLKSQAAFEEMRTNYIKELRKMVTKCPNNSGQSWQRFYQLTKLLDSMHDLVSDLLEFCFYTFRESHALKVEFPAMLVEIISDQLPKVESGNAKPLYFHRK
Description: Transcriptional activation activity in CV-1 cells expressing mineralocorticoid receptor

[2] = target: T2, Mineralocorticoid receptor (Homo sapiens, UniProt P08235); assay: Affinity for recombinant Mineralocorticoid receptor; conditions: read-out: Kd app
T2 sequence (P08235 whole entry): T1 sequence (whole entry)

[3] = target: T2, Mineralocorticoid receptor; assay: Inhibition of 10e-9 M aldosterone activity in CV-1 cells expressing mineralocorticoid receptor; format: functional, cell-based

| ED50 [1] [µM] | Kd [2] [µM] | IC50 [3] [µM] | Compound |
| --- | --- | --- | --- |
| 0.006 | 0.00074 | – | CC12CCC(=O)C=C1CCC1C2CCC2(C)C(C(=O)C=[N+]=[N-])CCC12 (stereo unspecified) |
| – | 0.02 | 0.9 | C[C@@H](O)C1CC[C@H]2[C@@H]3CCC4=CC(=O)CCC4(C)[C@H]3CCC12C(=O)C=[N+]=[N-] (stereo partly specified) |
| – | 0.02 | 0.7 | CC(=O)C1CC[C@H]2[C@@H]3CCC4=CC(=O)CCC4(C)[C@H]3CCC12C(=O)[CH-][N+]#N (stereo partly specified) |
